Data from patent US9688651B2, “Geranyl geranyl acetone analogs and uses thereof” (NYKEN Holding B.V., priority 2012, dated 2017).

Legend:
HSP70 [1] = assay: Hsp70 induction in murine proximal tubule (MPT) cells (Western blot); format: cell-based; settings: 40 μM, 5 hours, outperformed positive control GGA
Description: Murine proximal tubule (MPT) cells were isolated and cultured as described previously (Borkan et al. Heat stress ameliorates ATP depletion-induced sublethal injury in mouse proximal tubule cells. Am. J. Physiol. 1997; F347-55).
The MPT cells were exposed to 40 μM of compound for 5 hours, after which the cells were harvested in RIPA buffer followed by Western blotting.
For Western-blot analysis, equal amount of protein in SDS-PAGE sample buffer was separated on 10% PAA-SDS gels. After transfer to nitrocellulose membranes (Stratagene, USA), membranes were incubated with primary antibodies against HSP70 (Enzo C92F3A/StressGen SP810) or beta-actin (Sigma A541). Horseradish peroxidase-conjugated anti-mouse or anti-sheep (Jackson ImmunoRes) was used as secondary antibody. Signals were detected by the ECL-detection method (Amersham).

HSP70 [2] = assay: HSP70 protein boosting in HL-1 cardiomyocytes after mild heat shock (Western blot); format: cell-based, mouse; set-up: key to HSP boosting HL-1 cardiomyocytes Protein HSP70: 0 = no induction HSP levels; + = 2-10-fold induction; ++ = 10-30-fold induction; +++ = > 30-fold induction; settings: for HSP boosting HL-1 cardiomyocytes Protein HSP70: mild heat shock 44°C 10 min, then compound 10 μM for 6 hours, Western blot; for induction of mammalian HSP70 protein expression: HL-1, mild heat shock, 10 μM, 6 hours
Description: HL-1 atrial myocytes, a cell line derived from adult mouse atria were obtained from Dr. William Claycomb (Louisiana State University, New Orleans, La., USA). The myocytes were maintained in Complete Claycomb Medium (JRH, UK) supplemented with 100 μM norepinephrine stock (consisting of 10 mM norepinephrine (Sigma, The Netherlands) dissolved in 0.3 mM L-ascorbic acid (Sigma)), 4 mM L-glutamine (Gibco, The Netherlands) and 10% FBS (Sigma). The myocytes were cultured in flasks coated with 0.02% gelatin (Sigma), in a 5% CO2 atmosphere at 37° C.
HL-1 cardiomyocytes were subjected to a mild heat shock of 44° C. for 10 minutes. After a recovery of 10 minutes (37 degrees 5% CO2), compounds were added in a final concentration of 10 μM (dissolved in DMSO, final concentration 0.1%). To control myocytes, 0.1% DMSO was added. After six hours the cells were lysed in RIPA buffer and used for Western blotting as described previously.^3, 10
(§1) Western-blot analysis was performed as described previously^3, 10. Equal amount of protein in SDS-PAGE sample buffer was sonicated before separation on 10% PAA-SDS gels. After transfer to nitrocellulose membranes (Stratagene, The Netherlands), membranes were incubated with primary antibodies against HSP25 (Stressgen, The Netherlands, SPA-801, 1:1000), HSP27 (Stressgen, SPA-800, 1:1000), HSP70 (Stressgen, SPA-810, 1:1000), GAPDH (Affinity Reagents, The Netherlands) or PARP (Santa Cruz, The Netherlands, sc-7150, 1:500). Horseradish peroxidase-conjugated anti-mouse or anti-rabbit (Santa-Cruz Biotechnology, The Netherlands) was used as secondary antibody. Signals were detected by the ECL-detection method (Amersham, The Netherlands) and quantified by densitometry using GeneTools software from Syngene (The Netherlands).
Compounds were also screened for HSP70 boosting effects. Hereto, HL-1 cardiomyocytes were first subjected to a mild heat shock which activates the Heat Shock Factor. After the mild heat shock, compound (10 μM) was added to the medium of HL-1 cardiomyocytes for 6 hours, followed by determination of the HSP70 amount.

HSP70 [3] = assay: HSP70 mRNA (qPCR) in HL-1 cardiomyocytes after mild heat shock; format: cell-based, mouse; settings: then compound 10 μM for 6 hours
Description: (§2) HL-1 cardiomyocytes were subjected to a mild heat shock of 44° C. for 10 minutes. After a recovery of 10 minutes (37 degrees 5% CO2), compounds were added in a final concentration of 10 μM (dissolved in DMSO, final concentration 0.1%). To control myocytes, 0.1% DMSO was added. After six hours the cells were lysed in RIPA buffer and used for Western blotting as described previously.^3, 10 Compounds were also screened for their ability to upregulate HSP gene expression. Hereto, HL-1 cardiomyocytes were first subjected to a mild heat shock which activates the Heat Shock Factor. After the mild heat shock, compound (10 μM) was added to the medium of HL-1 cardiomyocytes for 6 hours, followed by determination of HSP70, HSP25, HSP90 and HSP40 which are targets of the heat shock factor 1 (HSF1) transcription factor. In addition, we determined mRNA levels of the gene encoding the glucose-responsive protein 78 (Grp78) which is HSF1-independent.

HSP25 = HSP25 mRNA (qPCR) in HL-1 cardiomyocytes after mild heat shock; format: cell-based, mouse; settings: then compound 10 μM for 6 hours
Description: as §2

HSP90 = HSP90 mRNA (qPCR) in HL-1 cardiomyocytes after mild heat shock; format: cell-based, mouse; settings: then compound 10 μM for 6 hours
Description: as §2

HSP40 = HSP40 mRNA (qPCR) in HL-1 cardiomyocytes after mild heat shock; format: cell-based, mouse; settings: then compound 10 μM for 6 hours
Description: as §2

[4] = system: glucose-responsive protein 78 (Grp78); assay: Grp78 mRNA (qPCR, HSF1-independent) in HL-1 cardiomyocytes; format: cell-based, mouse; set-up: key to HSP boosting HL-1 cardiomyocytes mRNA (qPCR) Grp78 Not HSF1: 0 = no induction HSP levels; + = 2-10-fold induction; ++ = 10-30-fold induction; +++ = > 30-fold induction; settings: for HSP boosting HL-1 cardiomyocytes mRNA (qPCR) Grp78 Not HSF1: mild heat shock, then compound 10 μM for 6 hours; for upregulation of Grp78 mRNA: HL-1, mild heat shock, 10 μM, 6 hours
Description: as §2

[5] = system: MCF-7 breast cancer cells; assay: MCF-7 cell death, ratio death/living cells (trypan blue); format: cell-based, human; set-up: key to Cell Death MCF-7 cancer cells Death/living 100 μM: 0 = no dead cells; + = P < 0.05; ++ = P < 0.01; +++ = P < 0.001; settings: 100 μM; 16-20 hours; trypan blue
Description: MCF-7 breast cancer cells were cultured in DMEM supplemented with 10% FCS. […] Ratio death and living cells was determined by using trypan blue staining of death cells. The cell pellets were lysed in RIPA buffer and used for Western blot analysis.
Since we observed that some compounds aggravate tachypacing-induced contractile dysfunction, we next investigated if these compounds can induce programmed cell death in a human breast cancer cell-line MCF-7. […] In total 28 compounds were tested for cell death. […] GGA was used as a control as well as non-treated MCF-7 cells. […] The findings indicate that GGA-like compounds which aggravate heart failure can induce programmed cell death in MCF-7 breast cancer cell-line.

HSP27 = HSP27 Western blot in MCF-7 cells; format: cell-based, human; set-up: key: + = P < 0.05; ++ = P < 0.01; +++ = P < 0.001; settings: MCF-7 lysate, 16-20 hours
Description: (§3) MCF-7 breast cancer cells were cultured in DMEM supplemented with 10% FCS. Test compounds were added to the medium in a final concentration of […] for 16-20 hours. Ratio death and living cells was determined by using trypan blue staining of death cells. The cell pellets were lysed in RIPA buffer and used for Western blot analysis.
as §1

HSP70 [6] = assay: HSP70 Western blot in MCF-7 cells; format: cell-based, human; set-up: key: + = P < 0.05; ++ = P < 0.01; +++ = P < 0.001; settings: MCF-7 lysate, 16-20 hours
Description: as §3, §1

PARP = PARP cleavage in MCF-7 cells (Western blot); format: cell-based, human; set-up: key to Cell Death MCF-7 cancer cells PARP: 0 = no dead cells; + = P < 0.05; ++ = P < 0.01; +++ = P < 0.001; settings: MCF-7 lysate, Western blot, 16-20 hours
Description: as §3, §1
Since we observed that some compounds aggravate tachypacing-induced contractile dysfunction, we next investigated if these compounds can induce programmed cell death in a human breast cancer cell-line MCF-7. Hereto, MCF-7 cells were incubated for 16 hours with 10 μM of a test compound after which the number of death and living cells was determined. In total 28 compounds were tested for cell death. […] GGA was used as a control as well as non-treated MCF-7 cells. […] The findings indicate that GGA-like compounds which aggravate heart failure can induce programmed cell death in MCF-7 breast cancer cell-line.

[7] = system: HSP70, HSP25, HSP90 and HSP40; assay: Upregulation of HSP gene expression (HSF1 targets) in HL-1 cardiomyocytes; format: cell-based, mouse; settings: HL-1, mild heat shock, 10 μM, 6 hours
Description: as §2

Compound	induction of HSP70 expression in renal (MPT) cells (HSP70 [1])	HSP boosting HL-1 cardiomyocytes Protein HSP70 (HSP70 [2])	HSP boosting HL-1 cardiomyocytes mRNA (qPCR) HSP 70 (HSP70 [3])	HSP boosting HL-1 cardiomyocytes mRNA (qPCR) HSP 25 (HSP25)	HSP boosting HL-1 cardiomyocytes mRNA (qPCR) HSP 90 (HSP90)	HSP boosting HL-1 cardiomyocytes mRNA (qPCR) HSP 40 (HSP40)	HSP boosting HL-1 cardiomyocytes mRNA (qPCR) Grp78 Not HSF1 [4]	Cell Death MCF-7 cancer cells Death/living 100 μM [5]	Cell Death MCF-7 cancer cells HSP 27 (HSP27)	Cell Death MCF-7 cancer cells HSP 70 (HSP70 [6])	Cell Death MCF-7 cancer cells PARP (PARP)	induction of mammalian HSP70 protein expression (HSP70 [2])	upregulation of Grp78 mRNA [4]	induction of HSP gene expression [7]
CC(=O)OC/C=C(\C)CC/C=C(\C)COC1CCCCO1 (stereo not shown) [Compound 106]	strong inducers	–	–	–	–	–	–	–	–	–	–	–	–	–
CC(=O)CC/C=C(\C)CC/C=C(\C)CC/C=C(\C)CCC=C(C)C [GGA, (5E,9E,13E)-6,10,14,18-tetramethylnonadeca-5,9,13,17-tetraen-2-one, reference compound]	–	++ (++ = 10-30-fold induction)	+ (+ = 2-10-fold induction)	++ (++ = 10-30-fold induction)	++ (++ = 10-30-fold induction)	+ (+ = 2-10-fold induction)	0	0	+ (+ = P < 0.05)	0	0	–	–	–
CC(=O)N[C@@H](C)C(=O)NC/C=C(\C)CCC=C(C)C [Compound 95]	strong inducers	+++ (+++ = > 30-fold induction)	–	+ (+ = 2-10-fold induction)	++ (++ = 10-30-fold induction)	+ (+ = 2-10-fold induction)	0	–	–	–	–	potent inducers	–	–
CC(C)=CCC/C(C)=C/CNC(=O)CN(C)C [Compound 49]	strong inducers	+++ (+++ = > 30-fold induction)	–	+++ (+++ = > 30-fold induction)	+++ (+++ = > 30-fold induction)	+++ (+++ = > 30-fold induction)	0	0	0	0	0	potent inducers	–	–
CCOC(=O)C(CC)C(=O)CC/C=C(\C)CCC=C(C)C (stereo not shown) [Compound 69]	strong inducers	0	–	–	–	–	–	–	–	–	–	–	–	–
CC(C)=CCC/C(C)=C/CCc1cc(C)[nH]n1 [Compound 32]	strong inducers	+ (+ = 2-10-fold induction)	–	–	–	–	–	0	+ (+ = P < 0.05)	0	0	–	–	–
CC(C)=CCC/C(C)=C/CN1C(=O)CCC1=O [Compound 47]	strong inducers	–	–	–	–	–	–	–	–	–	–	–	–	–
CCOC(=O)C(Cc1ccccc1)C(=O)CC/C=C(\C)CCC=C(C)C (stereo not shown) [Compound 23]	–	–	++ (++ = 10-30-fold induction)	+ (+ = 2-10-fold induction)	+ (+ = 2-10-fold induction)	+ (+ = 2-10-fold induction)	0	–	–	–	–	potent inducers	no upregulation	strong inducers
CCOC(=O)C(C)(C)C(=O)CC/C=C(\C)CCC=C(C)C [Compound 76, (E)-ethyl 2,2,7,11-tetramethyl-3-oxododeca-6,10-dienoate]	–	+++ (+++ = > 30-fold induction)	+++ (+++ = > 30-fold induction)	++ (++ = 10-30-fold induction)	++ (++ = 10-30-fold induction)	+ (+ = 2-10-fold induction)	0	–	–	–	–	potent inducers	no upregulation	strong inducers
CCOC(=O)CC(=O)c1ccccc1O [Compound 60, Ethyl 3-(2-hydroxyphenyl)-3-oxopropanoate]	–	–	–	–	–	–	–	–	–	–	–	potent inducers	no upregulation	strong inducers
